In US10167296B2, “Sulfoximine substituted quinazolines for pharmaceutical compositions” (EVOTEC INTERNATIONAL GMBH, priority 2014, dated 2019) one finds IC50 and inhibition data, which are given here for 28 compounds.

Assay [1] deals with MNK2a (pre-activated GST-MNK2a) (Homo sapiens (Human), UniProt Q9HBH9). Briefly: MNK2a in vitro kinase assay (assay 1), ADP-Glo. Format: biochemical. The conditions noted are these: read-out: Mnk2 IC50. The method, then: A. MNK2a In Vitro Kinase Assay (Assay 1)
The inhibition of kinase activity of MNK2a was assessed using pre-activated GST-MNK2a. The white, 384-well OptiPlate F plates were purchased from PerkinElmer. The ADP-Glo Kinase Assay (including ultra pure ATP) was purchased from Promega (V9103). Activated MNK2a was obtained as described in WO2011/104340. […] ID No. 5 of WO 2011/104340 by the C-terminal —CONH2 group, was purchased from Thermo Fisher Scientific. All other materials were of highest grade commercially available. Compounds are tested in either serial dilutions or single dose concentrations. The compound stock solutions are 10 mM in 100% DMSO The serial compound dilutions are prepared in 100% DMSO followed by 1:27.3 intermediate dilution in assay buffer. The final DMSO concentration in assay will be <3%.
In the 384-well plates 3 μl of test compound from the intermediate dilution is mixed with 4 μl of the activated MNK2 enzyme (final concentration of 10 nM) and 4 μl of the peptide (final concentration of 25 μM)/ultra pure ATP (final concentration of 20 μM), all dissolved in assay buffer. This step is followed by an incubation time of 90 min, then 10 μl of ADP Glo reagent are added, followed by 40 min of incubation. Then 20 μl of kinase detection reagent are admixed. The plates are sealed and after an incubation period of 30 min, the luminescence signal is measured in an Envision reader to determine the amount of produced ADP. All incubation steps are performed at room temperature.
The assay buffer consists of 20 mM HEPES, 2 mM DTT, 0.01% BSA, 20 mM MgCl2 and 0.1% Pluronic F-127.
The luminescent signal generated is proportional to the ADP concentration produced and is correlated with activated MNK2 activity. The analysis of the data is performed by the calculation of the percentage of ATP consumption of activated MNK2 in the presence of the test compound compared to the consumption of ATP in the presence of activated MNK2 without compound. (RLU(sample)−RLU(low control))*100/(RLU(high value)−RLU(low control))
[RLU=Relative Luminescence Units]
Values of more than 100% CTL are normally related to compound/sample specific physico-chemical properties (e.g. solubility, light absorbance, fluorescence).
IC50 values based on dose response curves are calculated with the AssayExplorer software.
In general terms: ADP-Glo first removes unused ATP, then detects ADP through luciferase.

Assay [2] deals with MNK1a (pre-activated GST-MNK1a) (Homo sapiens (Human), UniProt Q9BUB5). Nature of the assay: MNK1 in vitro kinase assay (assay 2), Z'-LYTE. Format: biochemical. The conditions noted are these: for inhibition at 1 µM: compound concentration of 1 μM, read-out: Mnk1 % Inh. The text has this:
B. MNK1 In Vitro Kinase Assay (Assay 2)
MNK1 Data can be obtained from the MNK1 Z′-LYTE® assay. The MNK1 Z′-LYTE® screening protocol and assay conditions are also described on www.invitrogen.com.
The assay is described as follows:
The Z′-LYTE® biochemical assay employs a fluorescence-based, coupled-enzyme format and is based on the differential sensitivity of phosphorylated and non-phosphorylated peptides to proteolytic cleavage. The peptide substrate is labeled with two fluorophores—one at each end—that make up a FRET pair.
In the primary reaction, the kinase transfers the gamma-phosphate of ATP to a single tyrosine, serine or threonine residue in a synthetic FRET-peptide. In the secondary reaction, a site-specific protease recognizes and cleaves non-phosphorylated FRET-peptides. Phosphorylation of FRET-peptides suppresses cleavage by the Development Reagent. Cleavage disrupts FRET between the donor (i.e., coumarin) and acceptor (i.e., fluorescein) fluorophores on the FRET-peptide, whereas uncleaved, phosphorylated FRET-peptides maintain FRET. A ratiometric method, which calculates the ratio (the Emission Ratio) of donor emission to acceptor emission after excitation of the donor fluorophore at 400 nm, is used to quantitate reaction progress, as shown in the equation below. Emission Ratio=Coumarin Emission(445 nm)/Fluorescein Emission(520 nm)
The inhibition of kinase activity of MNK1a was assessed using pre-activated GST-MNK1a. The 2×MKNK1 (MNK1) mixture is prepared in 50 mM HEPES pH 7.5, 0.01% BRIJ-35, 10 mM MgCl2, 4 mM MnCl2, 1 mM EGTA, 2 mM DTT. The final 10 μL Kinase Reaction consists of 13.5-54 ng MKNK1 (MNK1) and 2 μM Ser/Thr 07 in 50 mM HEPES pH 7.5, 0.01% BRIJ-35, 10 mM MgCl2, 2 mM MnCl2, 1 mM EGTA, 1 mM DTT. After the 1 hour Kinase Reaction incubation, 5 μL of a 1:32768 dilution of Development Reagent A is added.
The Test Compounds are screened in 1% DMSO (final) in the well.
All Peptide/Kinase Mixtures are diluted to a 2×working concentration in the MNK1 Kinase Buffer.
All ATP Solutions are diluted to a 4×working concentration in Kinase Buffer (50 mM HEPES pH 7.5, 0.01% BRIJ-35, 10 mM MgCl2, 1 mM EGTA).
Development Reagent Solution:
The Development Reagent is diluted in Development Buffer
Bar-coded Corning, low volume NBS, 384-well plate (Corning Cat. #3676)
1. 2.5 μL—4×Test Compound
2. 5 μL—2×Peptide/Kinase Mixture
5. 60-minute Kinase Reaction incubation at room temperature
6. 5 μL—Development Reagent Solution
8. 60-minute Development Reaction incubation at room temperature
9. Read on fluorescence plate reader and analyze the data
The following equations are used for each set of data points:
Correction for Background Fluorescence: FISample−FITCFI Ctl Emission Ratio (using values corrected for background fluorescence):Coumarin Emission (445 nm)/Fluorescein Emission (520 nm)
% Phosphorylation (% Phos): 1−((Emission Ratio×F100%)−C100%)/((C0%−C100%)+[Emission Ratio×(F100%−F0%)])*100
% Inhibition: 1−(% PhosSample/% Phos0% Inhibition Ctl)*100 FI=Fluorescence Intensity C100%=Average Coumarin emission signal of the 100% Phos. Control C0%=Average Coumarin emission signal of the 0% Phos. Control F100%=Average Fluorescein emission signal of the 100% Phos. Control F0%=Average Fluorescein emission signal of the 0% Phos. Control
SelectScreen® Kinase Profiling Service uses XLfit from IDBS. The dose response curve is curve fit to model number 205 (sigmoidal dose-response model).

MNK1a (pre-activated GST-MNK1a), sequence (Q9BUB5 other isoform, or with tags, fused parts or gaps): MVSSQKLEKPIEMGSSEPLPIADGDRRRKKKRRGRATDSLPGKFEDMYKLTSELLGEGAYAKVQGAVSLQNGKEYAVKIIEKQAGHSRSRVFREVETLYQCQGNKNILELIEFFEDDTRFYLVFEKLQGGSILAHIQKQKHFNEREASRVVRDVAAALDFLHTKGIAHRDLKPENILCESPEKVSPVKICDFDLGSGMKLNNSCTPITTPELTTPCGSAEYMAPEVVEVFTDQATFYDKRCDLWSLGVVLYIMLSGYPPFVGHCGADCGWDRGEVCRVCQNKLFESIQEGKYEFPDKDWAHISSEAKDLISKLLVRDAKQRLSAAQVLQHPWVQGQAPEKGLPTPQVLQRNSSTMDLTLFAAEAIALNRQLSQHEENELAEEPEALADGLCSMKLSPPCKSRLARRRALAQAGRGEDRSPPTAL
MNK2a (pre-activated GST-MNK2a), sequence (Q9HBH9 whole entry): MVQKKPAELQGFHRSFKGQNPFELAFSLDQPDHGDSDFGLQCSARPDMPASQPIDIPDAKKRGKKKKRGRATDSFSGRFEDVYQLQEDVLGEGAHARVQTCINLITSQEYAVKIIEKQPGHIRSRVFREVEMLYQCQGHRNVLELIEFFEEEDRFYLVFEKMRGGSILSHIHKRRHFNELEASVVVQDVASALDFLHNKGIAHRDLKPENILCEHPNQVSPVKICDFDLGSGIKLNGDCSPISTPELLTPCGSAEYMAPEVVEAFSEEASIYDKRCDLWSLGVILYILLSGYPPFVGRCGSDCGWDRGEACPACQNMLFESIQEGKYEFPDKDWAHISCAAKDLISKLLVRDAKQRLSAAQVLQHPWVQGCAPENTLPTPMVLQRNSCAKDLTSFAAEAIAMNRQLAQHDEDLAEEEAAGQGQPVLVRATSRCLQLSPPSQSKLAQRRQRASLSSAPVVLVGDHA

With `COc1c(N=S(C)(C)=O)cc2ncnc(Nc3cc4cn[nH]c4cc3OC(C)C)c2c1C` [Example 2.20], the IC50 in assay [1] was found to be 3.8 nM; in assay [2], 57 nM.

In the case of `COCCOc1c(N=S(C)(C)=O)cc2ncnc(Nc3ccc(F)cc3O[C@H](C)C(F)(F)F)c2c1C` [Example 3.02], the concentration for half-maximal inhibition (IC50) in assay [1] was 2.6 nM; in assay [2], 113 nM.

Consider `COc1c(N=S2(=O)CCCC2)cc2ncnc(Nc3ccc(F)cc3O[C@H]3CCOC3)c2c1C` [Example 2.48], for which the figures for the IC50 in assay [1] and in assay [2] were 1.3 nM and 22 nM, respectively.

As to `COc1c(N=S2(=O)CCCC2)cc2ncnc(Nc3ccc(F)cc3O[C@@H]3CO[C@H]4[C@@H]3OC[C@H]4O)c2c1C` [Example 2.09], the IC50 in assay [1] is 1.8 nM; in assay [2], 14 nM.

Take `COc1c(N=S(C)(=O)C(C)C)cc2ncnc(Nc3ccc(F)cc3O[C@@H]3CO[C@@H]4CCO[C@@H]43)c2c1C` (some centres unmarked) [Example 2.31]: the 50% inhibitory concentration (IC50) in assay [1] amounted to 2.1 nM. The inhibition at 1 µM in assay [2] worked out at 96%.

Turning to `COc1c(N=S(C)(=O)C2CC2)cc2ncnc(Nc3ccc(F)cc3O[C@@H]3CO[C@@H]4CCO[C@@H]43)c2c1C` (some centres unmarked) [Example 2.43], in assay [1], the concentration for half-maximal inhibition (IC50) came out at 2.3 nM. The inhibition at 1 µM in assay [2] came to 97%.

Turning to `COc1c(N=S2(=O)CCCCC2)cc2ncnc(Nc3ccc(F)cc3O[C@@H]3CO[C@@H]4CCO[C@@H]43)c2c1C` [Example 2.08], in assay [1], the IC50 was found to be 1.4 nM. In addition, the inhibition at 1 µM in assay [2] came out at 107%.

For the compound `COc1c(N=S2(=O)CCC2)cc2ncnc(Nc3ccc(Cl)cc3O[C@H](C)C(=O)NCC(F)(F)F)c2c1C` [Example 2.39], the IC50 came to 2.4 nM in assay [1] and 66 nM in assay [2].

As for `COc1c(N=S2(=O)CCCC2)cc2ncnc(Nc3ccc(F)cc3O[C@H]3CC[C@H](O)CC3)c2c1C` [Example 2.44], the IC50 in assay [1] is 1.4 nM; in assay [2] it was 41 nM.

For the compound `COc1c(N=S2(=O)CCNCC2)cc2ncnc(Nc3ccc(F)cc3O[C@@H]3CO[C@@H]4CCO[C@@H]43)c2c1C` [Example 2.30], the IC50 in assay [1] is 1.3 nM. In assay [2], the inhibition at 1 µM turned out to be 105%.

Consider `COc1c(N=S(C)(C)=O)cc2ncnc(Nc3ccc(F)cc3O[C@@H]3CO[C@H]4[C@@H]3OC[C@@H]4F)c2c1C` [Example 2.02], for which the IC50 in assay [1] is 12.6 nM; in assay [2], 25 nM.

Regarding `Cc1c(OCCN2CCN(C)C(=O)C2)c(N=S(C)(C)=O)cc2ncnc(Nc3ccc(F)cc3O[C@H](C)C(F)(F)F)c12` [Example 2.32], the IC50 in assay [1] came to 4.1 nM; in assay [2], 65 nM.

As for `COc1c(N=S2(=O)CCOCC2)cc2ncnc(Nc3ccc(F)cc3O[C@@H]3CO[C@@H]4CCO[C@@H]43)c2c1C` [Example 2.17], in assay [1], the IC50 was found to be 2.1 nM. Moreover, the inhibition at 1 µM in assay [2] was 94%.

For the compound `COc1c(N=S2(=O)CCC2)cc2ncnc(Nc3ccc(F)cc3O[C@@H]3CO[C@H]4[C@@H]3OC[C@@H]4F)c2c1C` [Example 2.26], the IC50 in assay [1] came to 1 nM; in assay [2], 64 nM.

Take `COc1c(N=S(C)(C)=O)cc2ncnc(Nc3ccc(F)cc3O[C@@H]3CO[C@H]4[C@@H]3OC[C@H]4OC)c2c1Cl` [Example 2.28]: in assay [1], the IC50 was 2.2 nM.

On to `COc1c(N=S(C)(C)=O)cc2ncnc(Nc3ccc(F)cc3O[C@H]3COC[C@@H]3O)c2c1C` [Example 2.38], for which the results for the IC50 in assay [1] and in assay [2] were 2 nM and 55 nM, respectively.

Turning to `Cc1c(OCC2CC2)c(N=S(C)(C)=O)cc2ncnc(Nc3ccc(F)cc3O[C@H](C)C(F)(F)F)c12` [Example 3.01], the IC50 turned out to be 3.3 nM in assay [1] and 180 nM in assay [2].

As to `COc1c(N=S(C)(C)=O)cc2ncnc(Nc3cccnc3O[C@@H]3CO[C@@H]4CCO[C@@H]43)c2c1C` [Example 2.49], in assay [1], the IC50 is 2.3 nM. Moreover, the inhibition at 1 µM in assay [2] turned out to be 95%.

With `COc1c(N=S2(=O)CCCC2)cc2ncnc(Nc3ccc(F)cc3O[C@@H]3CO[C@@H]4CCO[C@@H]43)c2c1C` [Example 2.03], the IC50 in assay [1] came out at 1.2 nM. In addition, the inhibition at 1 µM in assay [2] amounted to 105%.

With `COc1c(N=S2(=O)CCC2)cc2ncnc(Nc3cccnc3O[C@@H]3CO[C@@H]4CCO[C@@H]43)c2c1C` [Example 2.21], the half-inhibitory concentration (IC50) in assay [1] was found to be 1.9 nM; in assay [2], 33 nM.

Regarding `COc1c(N=S2(=O)CCC2)cc2ncnc(Nc3ccc(F)cc3O[C@H]3CC[C@H](O)CC3)c2c1C` [Example 2.58], the IC50 in assay [1] worked out at 2.4 nM; in assay [2] it was 38 nM.

With `COc1c(N=S2(=O)CCC2)cc2ncnc(Nc3ccc(F)cc3O[C@@H]3CO[C@H]4[C@@H]3OC[C@H]4OC)c2c1C` [Example 2.41], the concentration for half-maximal inhibition (IC50) in assay [1] is 1.6 nM. Besides, the inhibition at 1 µM in assay [2] came to 106%.

For `COc1c(N=S(C)(C)=O)cc2ncnc(Nc3ccc(F)cc3O[C@H](C)C(=O)NCC(F)(F)F)c2c1C` [Example 2.24], in assay [1], the IC50 came to 4.4 nM. Besides, the inhibition at 1 µM in assay [2] was determined as 100%.

Take `COc1c(N=S(C)(C)=O)cc2ncnc(Nc3ccc(F)cc3O[C@@H]3CO[C@H]4[C@@H]3OC[C@H]4O)c2c1C` [Example 2.13]: in assay [1], the IC50 was 1.7 nM. Moreover, in assay [2], the inhibition at 1 µM was found to be 103%.

Turning to `COc1c(N=S2(=O)CCC2)cc2ncnc(Nc3ccc(F)cc3O[C@@H]3CO[C@@H]4CCO[C@@H]43)c2c1C` [Example 2.42], the IC50 in assay [1] is 1.2 nM; in assay [2] it was 52 nM.

As to `COc1c(N=S(C)(C)=O)cc2ncnc(Nc3ccc(F)cc3O[C@H](C)C(=O)NCC(F)(F)F)c2c1Cl` [Example 2.47], the figures for the IC50 in assay [1] and in assay [2] were 1.4 nM and 28 nM, respectively.

For the compound `COc1c(N=S2(=O)CCC2)cc2ncnc(Nc3ccc(F)cc3O[C@H]3COC[C@@H]3O)c2c1C` [Example 2.07], the IC50 in assay [1] came out at 2.7 nM.

`Cc1c(OCCN2CCOCC2)c(N=S(C)(C)=O)cc2ncnc(Nc3ccc(F)cc3O[C@H](C)C(F)(F)F)c12` [Example 1.04]: the IC50 in assay [1] was found to be 2.4 nM.

Usually IC50 stands for the concentration needed to halve the response being measured.
